The structures appear in SMILES notation. “Also recorded” adds a separate entry of the source.

For experiment [1], the system named is PC3 (AR‐negative) PCa cells. Description: 2D proliferation assay (resazurin), PC3. Type of experiment: cell-based. The method, then:
Cell cultures, proliferation assay and spheroid gro wth […]
streptomycin and 2 m M L-glutamine. All cells were regularly tested for mycoplasma contamination.
For the proliferation assay, cells were counted with a hemocytometer and seeded in triplicates in 96-well plates (4 .5x10^3 cells/well for 22Rv1 and 2.0x103 for PC3) and let adhere overnight at 37°C, […]
(§1) transfected with siRNA for BAZ2A , RLUC or KIF11, as detailed below. The cells were incubated for 1, 3, 6 (PC3) and 9 days (22Rv1) and the medium containing either the carrier or the inhibitors was replaced every 3 day s. Cell proliferation and viability were determined at day 1, 3, 6 and 9 by adding 10% resazurin sodium salt solution (0. 03 mg/ml powder from Sigma -Aldrich) directly into each well and incubating them for 4h at 37°C, 5% CO 2. The absorbance at 570/600 nm was measured using a Varioskan plate reader. The reduction of the resazur in sodium salt was calculated using the formula: (Abs x – Abs 0. 1%DMSO day1)/(Abs 0. 1%DMSO day9 - Abs 0. 1%DMSO day1). The growth rate was analysed using the linear regression algorithm of GraphPad Prism. […]
Background: The colour change of resazurin is a common sign of viable cells or microbes.

For experiment [2], the system named is 22Rv1 (AR‐positive) PCa cells. Description: 2D proliferation assay (resazurin), 22Rv1. Type of experiment: cell-based. How it is done: Cell cultures, proliferation assay and spheroid gro wth
PC3 and 22Rv1 cells were cultured in RPMI 1640 medium containing 10% FBS, 1% penicillin-streptomycin and 2 m M L-glutamine. All cells were regularly tested for mycoplasma contamination.
For the proliferation assay, cells were counted with a hemocytometer and seeded in triplicates in 96-well plates (4 .5x10^3 cells/well for 22Rv1 and 2.0x103 for PC3) and let adhere overnight at 37°C, 5% CO2. The following day, the medium was replaced with RPMI 1640 containing either the carrier […]
as §1

The test system of the next experiment is PCa cancer stem cells. Further details: method as in Peña‐Hernández et al., [2021]. The following applies: ref Peña‐Hernández et al., [2021]; cited from earlier work.

Take `Cn1cc(CCn2cnc(-c3cnn(C)c3)c2-c2ccc(C#N)cc2)cn1` [BAZ2‐ICR]: in experiment [1] (2D‐cell culture, PC3), the “effect on 2D growth of PC3 cells” value was “did not affect growth; also recorded: but not BAZ2‐ICR, reduces 2D growth”. Also, the “effect on viability of PC3 cells” value in experiment [1] (2D‐cell culture, PC3) is recorded as “did not affect growth or viability”. The “Slope (best-fit, linear regression of growth curve)” value is listed as 0,1625 in experiment [1] (PC3, 0.5 µM); 0,1599 in experiment [1] (PC3, 5 µM); 0,1532 in experiment [1] (PC3, 10 µM); 0,1580 in experiment [1] (PC3, 25 µM); 0,1041 in experiment [2] (22Rv1, 0.5 µM); 0,1046 in experiment [2] (22Rv1, 5 µM). In addition, the “Slope (best-fit, linear regression of growth curve)” value is 0,1034 in experiment [2] (22Rv1, 10 µM) and 0,1066 in experiment [2] (22Rv1, 25 µM). For the same compound, the “effect on 2D growth of 22Rv1 cells” value in experiment [2] (2D‐cell culture, 22Rv1) was “did not affect growth; also recorded: but not BAZ2‐ICR, reduces 2D growth”. Also, the “effect on viability of 22Rv1 cells” value in experiment [2] (2D‐cell culture, 22Rv1) is “did not affect growth or viability”. Further, in the experiment with PCa cancer stem cells, the “efficacy on PCa cancer stem cells” value is “effective on PCa cancer stem cells”.

The values are drawn from article PMC10464297, “Reevaluation of bromodomain ligands targeting BAZ2A” (Protein Science : A Publication of the Protein Society, 2023).
